According to patent US10457687B2, “Aminoacid derivatives, a process for their preparation and pharmaceutical compositions containing them” (LES LABORATOIRES SERVIER, priority 2015, dated 2019):

Molecular target: Mcl-1 protein (Homo sapiens, UniProt Q07820)
Experiment: Inhibition of Mcl-1 by the fluorescence polarisation technique (Method 1 or Method 2)
Format: binding
Conditions: for IC50: fluorescence polarisation, Fluorescein labelled ligand, Method 1 (not underlined) or Method 2 (underlined), read-out: IC50 (μM) Mcl-1 FP; for percentage fluorescence polarisation inhibition, Mcl-1 FP: partial inhibitors
Summary of the method: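 Fluorescence polarisation competition of 11-point compound dilutions (5% DMSO final) against fluorescein-labelled ligand for Mcl-1. Method 1: 1 nM ligand, 5 nM protein in 10 mM HEPES, 150 mM NaCl, 0.05% Tween 20, pH 7.4; Method 2: 10 nM ligand, 10 nM protein in 20 mM Na2HPO4, 1 mM EDTA, 50 mM NaCl, pH 7.4.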

Chain of Mcl-1 protein (Q07820 whole entry): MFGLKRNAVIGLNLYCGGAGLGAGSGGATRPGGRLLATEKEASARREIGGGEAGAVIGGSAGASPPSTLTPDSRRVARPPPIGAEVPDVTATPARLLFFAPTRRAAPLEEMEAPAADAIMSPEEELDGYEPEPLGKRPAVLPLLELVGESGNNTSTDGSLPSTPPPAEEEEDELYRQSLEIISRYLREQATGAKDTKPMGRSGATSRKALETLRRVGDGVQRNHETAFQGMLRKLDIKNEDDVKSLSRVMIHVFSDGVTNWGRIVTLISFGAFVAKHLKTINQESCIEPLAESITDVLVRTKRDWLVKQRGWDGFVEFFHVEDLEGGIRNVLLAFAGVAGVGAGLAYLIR

IC50 [µM]	SMILES	further results
0.462	CCc1sc2ncnc(NC(Cc3ccccc3)C(=O)O)c2c1-c1cccc2ccccc12 [Example 101, N-[6-ethyl-(5Sa)-5-(naphthalen-1-yl)thieno[2,3-d]pyrimidin-4-yl]-D-phenylalanine]	
0.466	CCc1sc2ncnc(NC(Cc3ccccc3O)C(=O)O)c2c1-c1cccc2ccccc12 [Example 174, N-[6-ethyl-(5Sa)-5-(naphthalen-1-yl)thieno[2,3-d]pyrimidin-4-yl]-2-hydroxy-D-phenylalanine]	
	CC#Cc1sc2ncnc(N[C@H](Cc3ccccc3OCc3ccnn3C(C)(C)C)C(=O)OCC)c2c1-c1ccc(OCCN2CCN(C)CC2)c(Cl)c1C [Example 257, ethyl 2-[(1-tert-butyl-1H-pyrazol-5-yl)methoxy]-N-[(5Sa)-5-{3-chloro-2-methyl-4-[2-(4-methylpiperazin-1-yl)ethoxy]phenyl}-6-(prop-1-yn-1-yl)thieno[2,3-d]pyrimidin-4-yl]-D-phenylalaninate]	percentage fluorescence polarisation inhibition, Mcl-1 FP (@ 10 μM test compound): 57.15% @ 10 μM
1.15	CCc1sc2ncnc(N[C@H](Cc3ccccc3C)C(=O)O)c2c1-c1cccc2ccccc12 (single isomer, unassigned) [Example 167, N-[6-ethyl-5-(naphthalen-1-yl)thieno[2,3-d]pyrimidin-4-yl]-2-methyl-D-phenylalanine]	
1.11	CCc1sc2ncnc(NC(Cc3ccccc3)C(=O)O)c2c1-c1cncc2ccccc12 [Example 82, N-[6-ethyl-(5Ra)-5-(isoquinolin-4-yl)thieno[2,3-d]pyrimidin-4-yl]-D-phenylalanine]	
	CCc1sc2ncnc(N[C@H](Cc3ccccc3Br)C(=O)O)c2c1-c1cccc(Cl)c1C [Example 139, 2-bromo-N-[(5Ra)-5-(3-chloro-2-methylphenyl)-6-ethylthieno[2,3-d]pyrimidin-4-yl]-D-phenylalanine]	percentage fluorescence polarisation inhibition, Mcl-1 FP (@ 10 μM test compound): 32.75% @ 10 μM
20.3	CCc1sc2ncnc(NC(Cc3ccccc3)C(=O)O)c2c1-c1cccc2c1c(Cl)cn2CCN1CCN(C)CC1 [Example 239, N-((5Ra)-5-{3-chloro-1-[2-(4-methylpiperazin-1-yl)ethyl]-1H-indol-4-yl}-6-ethyl-thieno[2,3-d]pyrimidin-4-yl)-D-phenylalanine]	
1.86	CC=Cc1sc2ncnc(NC(Cc3ccccc3)C(=O)O)c2c1-c1cccc2ccccc12 [Example 109, N-{(5Ra)-5-(naphthalen-1-yl)-6-[(1E)-prop-1-en-1-yl]thieno[2,3-d]pyrimidin-4-yl}-D-phenylalanine]	
0.005	CC#Cc1sc2ncnc(NC(Cc3ccccc3OCc3ccnc(-c4ccccc4OC)n3)C(=O)O)c2c1-c1ccc(OCCN2CCN(C)CC2)c(Cl)c1C [Example 45, N-[(5Sa)-5-{3-chloro-2-methyl-4-[2-(4-methylpiperazin-1-yl)ethoxy]phenyl}-6-(prop-1-yn-1-yl)thieno[2,3-d]pyrimidin-4-yl]-2-{[2-(2-methoxyphenyl)pyrimidin-4-yl]methoxy}-D-phenylalanine]	
1.36	CCCc1sc2ncnc(NC(Cc3ccccc3)C(=O)O)c2c1-c1cccc2ccccc12 [Example 253, N-[(5Ra)-5-(naphthalen-1-yl)-6-propylthieno[2,3-d]pyrimidin-4-yl]-D-phenylalanine]	
0.025	CCc1sc2ncnc(NC(Cc3ccccc3)C(=O)O)c2c1-c1ccc(OCCCN2CCN(C)CC2)c(Cl)c1C [Example 64, N-((5Sa)-5-{3-chloro-2-methyl-4-[3-(4-methylpiperazin-1-yl)propoxy]phenyl}-6-ethylthieno[2,3-d]pyrimidin-4-yl)-D-phenylalanine]	
0.704	C/C=C\c1sc2ncnc(N[C@H](Cc3ccccc3)C(=O)O)c2c1-c1cccc2ccccc12 [Example 105, N-[(5Ra)-5-(naphthalen-1-yl)-6-((1Z)-prop-1-en-1-yl)thieno[2,3-d]pyrimidin-4-yl]-D-phenylalanine]	
	CCc1sc2ncnc(NC(Cc3ccccc3)C(=O)OC)c2c1-c1cccc2ccccc12 [Example 255, methyl N-[6-ethyl-(5Ra)-5-(naphthalen-1-yl)thieno[2,3-d]pyrimidin-4-yl]-D-phenylalaninate]	percentage fluorescence polarisation inhibition, Mcl-1 FP (@ 200 μM test compound): 41.08% @ 200 μM
	Cc1c(-c2c(-c3ccsc3)sc3ncnc(NC(Cc4ccccc4F)C(=O)O)c23)ccc(OCCN2CCN(C)CC2)c1Cl [Example 33, N-[(5Ra)-5-{3-chloro-2-methyl-4-[2-(4-methylpiperazin-1-yl)ethoxy]phenyl}-6-(thiophen-3-yl)thieno[2,3-d]pyrimidin-4-yl]-2-fluoro-D-phenylalanine]	percentage fluorescence polarisation inhibition, Mcl-1 FP (@ 10 μM test compound): 54.9% @ 10 μM
12.6	CCc1sc2ncnc(N[C@@H](C(=O)O)c3ccccc3)c2c1-c1cccc2ccccc12 (single isomer, unassigned) [Example 161]	
	CCc1sc2ncnc(NC(Cc3ccccc3)C(=O)O)c2c1-c1cccc2c1c(Cl)cn2CCN1CCCCC1 [Example 234, N-((5Ra)-5-{3-chloro-1-[2-(piperidin-1-yl)ethyl]-1H-indol-4-yl}-6-ethyl-thieno[2,3-d]pyrimidin-4-yl)-D-phenylalanine]	percentage fluorescence polarisation inhibition, Mcl-1 FP (@ 50 μM test compound): 68.7% @ 50 μM
2.04	CCc1sc2ncnc(N[C@H](Cc3ccccc3Cl)C(=O)O)c2c1-c1cccc2ccccc12 [Example 183, 2-chloro-N-[6-ethyl-5-(naphthalen-1-yl)thieno[2,3-d]pyrimidin-4-yl]-D-phenylalanine]	
0.751	CC(C)c1sc2ncnc(N[C@H](Cc3ccccc3)C(=O)O)c2c1-c1cccc2ccccc12 (single isomer, unassigned) [Example 202, N-[5-(naphthalen-1-yl)-6-(propan-2-yl)thieno[2,3-d]pyrimidin-4-yl]-D-phenylalanine]	
2.1	CCc1sc2ncnc(N[C@H](CCc3ccccc3)C(=O)O)c2c1-c1cccc2ccccc12 [Example 169, (2R)-2-{[6-ethyl-5-(naphthalen-1-yl)thieno[2,3-d]pyrimidin-4-yl]amino}-4-phenylbutanoic acid]	
1.63	CCc1sc2ncnc(NC(Cc3ccccc3)C(=O)O)c2c1-c1cccc(Br)c1C [Example 96, N-[(5Ra)-5-(3-bromo-2-methylphenyl)-6-ethylthieno[2,3-d]pyrimidin-4-yl]-D-phenylalanine]	
9.86	O=C(O)C(Cc1ccccc1)Nc1ncnc2sc(CO)c(-c3cccc4ccccc34)c12 [Example 198, N-[6-(hydroxymethyl)-(5Sa)-5-(naphthalen-1-yl)thieno[2,3-d]pyrimidin-4-yl]-D-phenylalanine]	
0.154	CCc1sc2ncnc(NC(Cc3ccccc3OCCC3CCCC3)C(=O)O)c2c1-c1cccc(Cl)c1C [Example 144, N-[(5Sa)-5-(3-chloro-2-methylphenyl)-6-ethylthieno[2,3-d]pyrimidin-4-yl]-2-(2-cyclopentylethoxy)-D-phenylalanine]	
3.41	CCc1sc2ncnc(NC(Cc3ccccc3)C(=O)O)c2c1-c1cccc2c1c(Cl)cn2CCN1CCCC1 [Example 233, N-((5Sa)-5-{3-chloro-1-[2-(pyrrolidin-1-yl)ethyl]-1H-indol-4-yl}-6-ethyl-thieno[2,3-d]pyrimidin-4-yl)-D-phenylalanine]	
0.176	CCc1sc2ncnc(NC(Cc3ccccc3C(N)=O)C(=O)O)c2c1-c1cccc(Cl)c1C [Example 134, 2-carbamoyl-N-[(5Sa)-5-(3-chloro-2-methylphenyl)-6-ethylthieno[2,3-d]pyrimidin-4-yl]-D-phenylalanine]	
